Data set [1] is described as follows: Residual PAA and HP in corn mash by Hach DPD total chlorine test. It is filed as physicochemical.
Description: At the point of injection, the mash temperature was 140° F. and the mash flow rate was 110 gpm. The pumps used to pump both the HP and PAA solution were Prominent diaphragm pumps fitted with Teflon liquid ends. The dose of the PAA solution was 15 ppm (as PAA) and the dose of the HP was 40 ppm (as peroxide). However, the PAA solution and HP were fed for only 15 hours of the 23 hour fermentor fill time making the overall dose 9.8 ppm of PAA solution and 26 ppm of HP.
Samples were taken every hour at the mash cooler exit and fermentation tank. The samples were tested using a Hach DPD total chlorine test. Three (3) ml of sample was added to a test tube, then one DPD powder pillow was added to the sample. […] Peracetic acid (PAA) concentration was estimated based on the hue of pink color after 30 seconds.
Another data set relates to yeast. Nature of the data set: Full scale ethanol plant trial: alcohol production, yeast counts/viability, glycerol. It is filed as cell-based, Saccaromyces cerevisiae. Here is the method:
A number of full scale trials were conducted in order to evaluate the efficacy of introducing peracetic acid and hydrogen peroxide into a fermentation system was evaluated and compared to the use of conventional antibiotics. The ethanol plant tested is a 20 MGPY plant having a modified Delta T design. The plant process flow is as follows: • Corn mash cooler stage one→Corn mash cooler stage 2→fermenter←→fermenter cooler→distillation The corn mash enters the stage one cooler at 180° F. and is cooled to 140° F. It then enters the stage 2 cooler and is cooled to 90° F. Flow through the cooler is 110 gpm. From the stage 2 cooler the mash is sent to the fermenter. Once in the fermenter, the corn mash is re-circulated through a plate and frame mash cooler. When the fermenter has been filled for 30 minutes, yeast is added to the recirculating corn mash. The fermenter takes about 23 hours to fill. Once filled, fermentation begins to accelerate releasing heat which is dissipated in the fermenter cooler. The fermenter mash is sent to distillation about 56 hours after the fermenter is filled. System parameters are as follows:
During fermentation, carbohydrates, ethanol, and organic acids are monitored in order to insure that the fermentation process is occurring normally and to insure that undesirable bacteria are kept under control. […]

With `OO` [HP, hydrogen peroxide], the “HP in fermenter corn mash” value in data set [1] (after 3 hours) is on record as “not detectable”.

As for `CC(=O)OO` [PAA, peracetic acid], the “PAA in fermenter corn mash” value is listed as “not detectable” in data set [1] (after two hours) and “positive” in data set [1] (up to two hours into filling). For Virginiamycin [antibiotics], the “glycerol levels (indicative of stress on the yeast)” value with yeast was “tended to increase”.

The values are drawn from patent publication US9790520B2, “Antimicrobial method for fermentation processes” (DeLaval Holding AB, priority 2010, dated 2017).
